How the values were obtained:
Test in all cases: relative viability (nuclei count vs DMSO), 5 days (fraction); higher = more cells survive
[1] = compound: COc1cc2nc(N3CCCN(C)CC3)nc(NC3CCN(Cc4ccccc4)CC3)c2cc1OC + CC(C)C[C@H](NC(=O)[C@H](Cc1ccccc1)NC(=O)c1cnccn1)B(O)O [Bortezomib] (partner 0.002 µM)
In short: (§1)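 Relative viability equals treated-well nuclei counts divided by vehicle-well nuclei counts. Counts came from 4× images of lung cancer cell lines grown in 1536-well plates for 5 days after pin-tool dosing on the day after seeding. Dosing used one drug alone or a fixed anchor-drug dose plus five library-drug doses (not always all listed) in √10 steps, and values are medians of duplicate plates.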

[2] = compound: COc1cc2nc(N3CCCN(C)CC3)nc(NC3CCN(Cc4ccccc4)CC3)c2cc1OC + O=C(CCCCCCC(=O)Nc1ccccc1)NO [Vorinostat] (partner 1 µM)
In short: as §1

AZD6482 + Phenformin = compound: Cc1cc([C@@H](C)Nc2ccccc2C(=O)O)c2nc(N3CCOCC3)cc(=O)n2c1 [AZD6482] + N=C(N)NC(=N)NCCc1ccccc1 [Phenformin] (partner 250 µM)
In short: as §1

AZD6482 + AZD7762 = compound: Cc1cc([C@@H](C)Nc2ccccc2C(=O)O)c2nc(N3CCOCC3)cc(=O)n2c1 [AZD6482] + NC(=O)Nc1cc(-c2cccc(F)c2)sc1C(=O)N[C@H]1CCCNC1 [AZD7762] (partner 0.2 µM)
In short: as §1

Cell Line	relative viability ([1]; first compound 0.2 µM)	relative viability ([1]; first compound 0.6325 µM)	relative viability ([1]; first compound 2 µM)	relative viability ([1]; first compound 6.325 µM)	relative viability ([2]; first compound 0.2 µM)	relative viability ([2]; first compound 0.6325 µM)	relative viability ([2]; first compound 2 µM)	relative viability ([2]; first compound 6.325 µM)	relative viability (AZD6482 + Phenformin; first compound 0.08 µM)	relative viability (AZD6482 + Phenformin; first compound 0.253 µM)	relative viability (AZD6482 + Phenformin; first compound 0.8 µM)	relative viability (AZD6482 + Phenformin; first compound 2.53 µM)	relative viability (AZD6482 + Phenformin; first compound 8 µM)	relative viability (AZD6482 + AZD7762; first compound 0.08 µM)	relative viability (AZD6482 + AZD7762; first compound 0.253 µM)	relative viability (AZD6482 + AZD7762; first compound 0.8 µM)	relative viability (AZD6482 + AZD7762; first compound 2.53 µM)	relative viability (AZD6482 + AZD7762; first compound 8 µM)
HCC-44	0.935	0.85	0.991	0.909	1.11	1.12	1.17	1.12	0.255	0.14	0.189	0.169	0.167	0.897	0.997	1.1	1.11	1.38
HCC-827	0.99	1.13	0.786	1.06	0.899	0.786	0.784	0.826	0.45	0.345	0.381	0.288	0.301	0.351	0.184	0.162	0.131	0.137
NCI-H1623	–	–	–	–	–	–	–	–	0.577	0.579	0.531	0.502	0.534	–	–	–	–	–
NCI-H2347	1.04	0.846	1.08	1.07	0.712	0.725	0.51	0.504	0.198	0.277	0.235	0.243	0.221	0.502	0.464	0.332	0.32	0.373
PC-14	0.984	0.72	0.981	0.461	0.674	0.674	0.625	0.0432	0.488	0.438	0.59	–	0.534	0.417	0.302	0.324	0.26	0.194
NCI-H1651	0.884	0.939	1.03	0.934	0.56	0.617	0.561	0.548	0.281	0.296	0.33	0.253	0.242	0.457	0.379	0.456	0.391	0.379
HARA	1.03	1.07	1.28	1.11	0.584	0.63	0.515	0.51	0.376	0.395	0.486	0.399	0.168	0.424	0.338	0.269	0.224	0.516
NCI-H1650	0.228	0.189	0.2	0.216	0.66	0.656	0.747	0.465	0.333	0.369	0.373	0.233	0.297	–	–	–	–	–
NCI-H1395	–	–	–	–	0.617	1.24	0.896	0.491	0.388	0.385	0.438	0.347	0.302	0.393	0.393	0.44	0.405	0.411
LU99A	1.26	1.08	1.22	1.01	0.473	0.546	0.517	0.44	0.903	0.848	0.791	0.691	0.813	0.338	0.356	0.254	0.317	0.344
NCI-H1355	1.23	1.21	1.29	1.1	0.654	0.618	0.724	0.605	0.41	0.386	0.414	0.308	0.329	0.642	0.755	0.745	0.681	0.65
HCC-78	0.511	0.434	0.535	0.504	0.495	0.442	0.462	0.429	0.506	0.421	0.562	0.309	0.31	0.671	0.388	0.57	0.327	0.409
NCI-H1563	0.849	0.921	0.808	0.778	–	–	–	–	0.684	0.653	0.67	0.65	0.629	–	–	–	–	–
HCC-15	1.03	1.02	1.12	0.881	0.85	0.884	0.909	0.81	0.499	0.462	0.457	0.349	0.406	1.24	1.4	1.26	1.18	1.11
EKVX	1.09	0.993	1.18	0.963	0.703	0.721	0.541	0.722	0.212	0.22	0.233	0.171	0.208	0.564	0.666	0.538	0.478	0.494
LK-2	–	–	–	–	0.302	0.194	0.364	0.209	0.405	0.382	0.257	0.338	0.184	0.386	0.362	0.434	0.239	0.271
COR-L23	0.956	0.884	1.11	0.933	0.536	0.406	0.561	0.286	0.412	0.445	0.455	0.343	0.373	–	–	–	–	–
NCI-H522	–	–	–	–	0.803	0.884	0.879	0.676	0.607	0.764	0.7	0.654	0.396	0.764	0.73	0.803	0.762	0.664
SW 900	–	–	–	–	0.365	0.713	0.565	0.375	0.48	0.29	0.449	–	0.414	0.402	0.512	0.445	0.497	0.501
A549	–	–	–	–	–	–	–	–	0.154	0.14	0.222	0.158	0.153	–	–	–	–	–
NCI-H1792	0.952	1.01	1.08	1.22	–	–	–	–	0.222	0.237	0.298	–	0.13	0.516	0.577	0.427	0.262	0.322

Cell Line	relative viability ([1]; first compound 0.2 µM)	relative viability ([1]; first compound 0.6325 µM)	relative viability ([1]; first compound 2 µM)	relative viability ([1]; first compound 6.325 µM)	relative viability ([2]; first compound 0.2 µM)	relative viability ([2]; first compound 0.6325 µM)	relative viability ([2]; first compound 2 µM)	relative viability ([2]; first compound 6.325 µM)	relative viability (AZD6482 + Phenformin; first compound 0.08 µM)	relative viability (AZD6482 + Phenformin; first compound 0.253 µM)	relative viability (AZD6482 + Phenformin; first compound 0.8 µM)	relative viability (AZD6482 + Phenformin; first compound 2.53 µM)	relative viability (AZD6482 + Phenformin; first compound 8 µM)	relative viability (AZD6482 + AZD7762; first compound 0.08 µM)	relative viability (AZD6482 + AZD7762; first compound 0.253 µM)	relative viability (AZD6482 + AZD7762; first compound 0.8 µM)	relative viability (AZD6482 + AZD7762; first compound 2.53 µM)	relative viability (AZD6482 + AZD7762; first compound 8 µM)
NCI-H1703	0.37	0.379	0.316	0.203	–	–	–	–	–	–	–	–	–	–	–	0.333	0.131	0.149
SK-LU-1	1.14	1.19	1.5	1.07	0.832	0.747	0.844	0.641	–	0.454	0.502	0.347	0.237	–	–	–	–	–
COR-L 105	0.787	0.835	0.591	0.404	0.805	1.04	0.728	0.595	0.515	0.443	0.446	0.409	0.299	–	–	–	–	–
Calu-6	0.976	0.942	1.03	0.948	–	–	–	–	–	–	–	–	–	–	–	–	–	–
NCI-H358	–	–	–	–	0.746	0.663	0.754	0.462	0.305	0.323	0.317	0.163	0.233	0.545	0.487	0.549	0.302	0.439
NCI-H1944	–	–	–	–	0.58	0.597	0.512	0.517	0.216	0.193	0.19	0.154	0.153	0.57	0.522	0.499	0.381	0.417
NCI-H1648	–	–	–	–	–	0.562	–	0.616	–	–	–	–	–	0.708	0.674	0.872	–	0.6
EBC-1	0.469	0.476	0.437	0.265	–	–	–	–	–	–	–	–	–	–	–	–	–	–
NCI-H1299	1.01	1.01	1.02	1.05	–	–	–	–	–	–	–	–	–	–	–	–	–	–
NCI-H2228	0.91	0.841	1.47	0.519	0.37	0.662	0.54	0.25	–	0.315	0.324	0.309	0.284	–	–	–	–	–
NCI-H2342	–	–	–	–	0.638	0.729	0.792	0.757	0.517	0.569	0.682	0.373	0.429	0.532	0.352	0.567	0.337	0.374
IA-LM	0.705	0.764	1.04	0.737	0.983	0.876	0.908	0.975	–	–	–	–	–	–	–	–	–	–
SK-MES-1	–	–	–	–	1.02	1.04	1.22	0.472	0.612	0.75	0.611	0.357	0.406	–	–	–	–	–
NCI-H2170	–	–	–	–	0.858	0.765	0.86	0.755	0.418	0.432	0.421	0.386	0.36	0.806	0.788	0.785	0.615	0.566
SW 1573	1.16	0.893	0.882	0.853	0.704	0.574	0.684	0.199	0.301	0.296	0.383	0.19	0.221	–	–	–	–	–
NCI-H661	0.813	0.793	0.935	0.868	0.763	0.774	0.833	0.807	0.285	0.274	0.297	0.245	0.216	–	–	–	–	–
NCI-H1793	–	–	–	–	0.692	1.06	0.871	0.638	0.338	0.311	0.24	0.191	0.15	0.377	0.361	0.315	0.218	0.249
NCI-H520	0.792	0.623	0.777	0.217	0.77	0.77	0.586	0.209	0.402	0.283	0.285	0.166	0.225	–	–	–	–	–
NCI-H2023	1.02	0.967	1.05	0.329	0.565	0.63	0.509	0.0993	0.384	0.368	0.379	0.261	0.29	–	–	–	–	–
NCI-H2009	0.94	0.833	1.08	0.965	0.803	0.762	0.767	0.569	0.476	0.49	0.442	0.283	0.34	–	–	–	–	–

From the supplement of paper PMC10307832
